From patent publication US11040033B2 (Gilead Sciences, Inc., priority 2017, dated 2021)

target: T1, IDO1 (Homo sapiens, UniProt P14902); experiment: Cell-based (HeLa) assay for measurement of IDO1 inhibition (kynurenine levels in supernatant after IFNγ induction); conditions: H1-HeLa cells, IFNγ-induced IDO1, 48 hour incubation, kynurenine absorbance at 480 nm; geometric mean of a minimum of four determinations
T1 construct: HeLa cells were treated with a test compound in the presence of IFNγ, which induces IDO1 expression; endogenous in cells; host or cells: H1-HeLa cells (ATCC #CRL-1958), induced with IFNγ
T1 sequence (P14902 whole entry): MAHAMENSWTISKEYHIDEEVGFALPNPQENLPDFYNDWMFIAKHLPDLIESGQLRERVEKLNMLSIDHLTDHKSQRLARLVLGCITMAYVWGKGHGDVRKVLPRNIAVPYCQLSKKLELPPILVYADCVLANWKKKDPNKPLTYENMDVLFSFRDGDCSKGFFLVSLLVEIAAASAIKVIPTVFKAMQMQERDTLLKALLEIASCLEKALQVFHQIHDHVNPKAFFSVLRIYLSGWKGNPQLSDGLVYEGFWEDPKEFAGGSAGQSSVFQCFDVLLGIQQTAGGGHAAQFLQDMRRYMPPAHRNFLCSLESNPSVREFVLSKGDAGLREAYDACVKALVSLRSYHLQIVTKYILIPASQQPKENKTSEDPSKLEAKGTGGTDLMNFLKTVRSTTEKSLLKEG
Method: To measure IDO1 inhibition in tissue culture, HeLa cells were treated with a test compound in the presence of IFNγ, which induces IDO1 expression. Following incubation, cell supernatants were assayed for kynurenine levels, an indicator of IDO1 activity.
H1-HeLa cells (ATCC #CRL-1958) were seeded in 384-well plates (Greiner #82051-282) at a volume […] (Corning #15-018-CM) supplemented with 10% FBS (Corning #35-011-CV) and 1% P/S/G (Corning #30-009-CL) at a density of 1,250 cells/well and incubated overnight at 37° C., 5% CO2/100% humidity. The following day, the test compounds were added in DMSO (0.5% final) at various concentrations, and IDO1 was inducibly expressed by the addition of 50 uL/well of 50 ng/mL of INFγ(Peprotech #300-02) in cell plating media. As a positive control, 50 uL of the cell plating media without IFNγ was added to several wells. Following a 48 hour incubation, the plates were spun down at 1,200 RPM for 5 min at 10° C. 65 μL/well of the supernatant was then transferred to new 384-well plates (Thermo #262160) that contained 10 uL/well of 30% TCA (Sigma #T0699), and the plates were sealed and incubated at 60° C. for 30 min. The plates were then centrifuged for 15 min at 2,000 RPM at 10° C. 40 μL/well of the supernatant was transferred to new 384-well plates (Thermo #262160) and was reacted with 40 μL/well of 2% (w/v) p-dimethylaminobenzaldehyde (Sigma #156417) in glacial acetic acid (Sigma #A6283). The reaction was incubated at room temperature for 10 min and absorbance at 480 nm was read using a PerkinElmer Envision plate reader.
Data in Table 1 were normalized based on positive (−IFNγ) and negative (+IFNγ) controls and EC50 values were calculated from the fit of the dose-response curves to a four-parameter equation. All EC50 values represent geometric mean values of a minimum of four determinations. These assays generally produced results within 2-fold of the reported mean.

`Fc1ccc2[nH]c(-c3cc(-c4cccn5c(-c6cccc(F)c6F)ncc45)ccc3Cl)nc2c1` [Example 96, 2-(2-chloro-5-(3-(2,3-difluorophenyl)imidazo[1,5-a]pyridin-8-yl)phenyl)-5-fluoro-1H-benzo[d]imidazole] and `Cc1ncc(-c2cccn3c(-c4cccc(F)c4F)ncc23)cc1-c1nc2cc(F)ccc2[nH]1` [Example 97, 2-(5-(3-(2,3-difluorophenyl)imidazo[1,5-a]pyridin-8-yl)-2-methylpyridin-3-yl)-5-fluoro-1H-benzo[d]imidazole] are within 1.5-fold of each other in EC50: 67.2 nM for the first, 64.9 nM for the second.

Compared with `Cc1ncc(-c2cccn3c(-c4cccc(F)c4F)ncc23)cc1C(=O)Nc1ccncc1` [Example 69, 5-(3-(2,3-difluorophenyl)imidazo[1,5-a]pyridin-8-yl)-2-methyl-N-(pyridin-4-yl)nicotinamide], `Cc1ncc(-c2cccn3c(-c4cccc(F)c4F)ncc23)cc1C(=O)Nc1ccc(F)c(F)c1` [Example 68] is 1.8-fold higher in EC50: 57.6 nM for the first, 101 nM for the second. The first is the more potent here.

Going from `Cc1ncc(-c2cccn3c(-c4cccc(F)c4F)ncc23)cc1-c1nc2ccccc2[nH]1` [Example 99, 2-(5-(3-(2,3-difluorophenyl)imidazo[1,5-a]pyridin-8-yl)-2-methylpyridin-3-yl)-1H-benzo[d]imidazole] to `Cc1ncc(-c2cccn3c(-c4cccc(F)c4F)ncc23)cc1C(=O)Nc1cccc(OC(F)(F)F)c1` [Example 72, 5-(3-(2,3-difluorophenyl)imidazo[1,5-a]pyridin-8-yl)-2-methyl-N-(3-(trifluoromethoxy)phenyl)nicotinamide], the EC50 rises from 59.9 nM to 380 nM (6.3-fold). The first is the more potent here.

First: Cc1ccc(-c2cccn3c(-c4ccccc4C)nnc23)cc1C(=O)Nc1ccc(F)cc1 [Example 12, N-(4-fluorophenyl)-2-methyl-5-(3-(o-tolyl)-[1,2,4]triazolo[4,3-a]pyridin-8-yl)benzamide]
Second: Cc1ccc(-c2cccn3c(-c4ccccc4C(N)=O)nnc23)cc1C(=O)Nc1ccc(F)cc1 [Example 1, 5-(3-(2-carbamoylphenyl)-[1,2,4]triazolo[4,3-a]pyridin-8-yl)-N-(4-fluorophenyl)-2-methylbenzamide]
The EC50 of the first is 13-fold lower: 403 nM for the first, 5340 nM for the second. The first is the more potent here.

Compared with `Cc1ccccc1-c1ncc2c(-c3cnc(C)c(C(=O)Nc4ccc(F)cc4)c3)cccn12` [Example 29, N-(4-fluorophenyl)-2-methyl-5-(3-(o-tolyl)imidazo[1,5-a]pyridin-8-yl)nicotinamide], `Cc1ncc(-c2cccn3c(-c4ccccc4Cl)ncc23)cc1C(=O)Nc1ccc(F)cc1` [Example 80, 5-(3-(2-chlorophenyl)imidazo[1,5-a]pyridin-8-yl)-N-(4-fluorophenyl)-2-methylnicotinamide] is 2.3-fold lower in EC50: 44.7 nM for the first, 19.3 nM for the second.

Compared with `Cc1ccc(-c2nccn3c(-c4cccc(F)c4F)ncc23)cc1C(=O)Nc1ccc(F)cc1` [Example 51, 5-(3-(2,3-difluorophenyl)imidazo[1,5-a]pyrazin-8-yl)-N-(4-fluorophenyl)-2-methylbenzamide], `Cc1ccc(-c2nccn3c(-c4ccccn4)ncc23)cc1C(=O)Nc1ccc(F)cc1` [Example 54, N-(4-fluorophenyl)-2-methyl-5-(3-(pyridin-2-yl)imidazo[1,5-a]pyrazin-8-yl)benzamide] is 4-fold higher in EC50: 656 nM for the first, 2630 nM for the second. The first is the more potent here.

First: Cc1ncc(-c2cccn3c(C4CCOCC4)ncc23)cc1C(=O)Nc1ccc(F)cc1 [Example 75, N-(4-fluorophenyl)-2-methyl-5-(3-(tetrahydro-2H-pyran-4-yl)imidazo[1,5-a]pyridin-8-yl)nicotinamide]
Second: Cc1ncc(-c2cccn3c(C4CCC4)ncc23)cc1C(=O)Nc1ccc(F)cc1 [Example 91, 5-(3-cyclobutylimidazo[1,5-a]pyridin-8-yl)-N-(4-fluorophenyl)-2-methylnicotinamide]
The EC50 of the first is 1.5-fold lower: 591 nM for the first, 888 nM for the second. The first is the more potent here.

First: Cc1ccc(-c2cccn3c(-c4ncccn4)ncc23)cc1C(=O)Nc1ccc(F)cc1 [Example 37, N-(4-fluorophenyl)-2-methyl-5-(3-(pyrimidin-2-yl)imidazo[1,5-a]pyridin-8-yl)benzamide]
Second: Cc1ncc(-c2cccn3c(-c4ncccc4F)ncc23)cc1C(=O)Nc1ccc(F)cc1 [Example 19, N-(4-fluorophenyl)-5-(3-(3-fluoropyridin-2-yl)imidazo[1,5-a]pyridin-8-yl)-2-methylnicotinamide]
The EC50 of the first is 8.2-fold lower: 24.2 nM for the first, 199 nM for the second. The first is the more potent here.

Compared with `Cc1ncc(-c2cccn3c(C4CCCCC4)ncc23)cc1C(=O)Nc1ccc(F)cc1` [Example 93, 5-(3-cyclohexylimidazo[1,5-a]pyridin-8-yl)-N-(4-fluorophenyl)-2-methylnicotinamide], `O=C(Nc1ccc(F)cc1)c1cc(-c2cccn3c(-c4cccc(F)c4F)ncc23)cnc1N1CCC1` [Example 94, 2-(azetidin-1-yl)-5-(3-(2,3-difluorophenyl)imidazo[1,5-a]pyridin-8-yl)-N-(4-fluorophenyl)nicotinamide] is 2-fold lower in EC50: 250 nM for the first, 124 nM for the second. The second is the more potent here.

`Cc1c(F)cc(-c2cccn3c(-c4cccc(F)c4F)ncc23)cc1C(=O)Nc1ccc(F)cc1` [Example 84] and `Cc1ccc(-c2cccn3c(-c4cccc(F)c4F)ncc23)nc1C(=O)Nc1ccc(F)cc1` [Example 57] are within 1.5-fold of each other in EC50: 75.3 nM for the first, 76.8 nM for the second.

Compared with `O=C(Nc1ccc(F)cc1)c1nc(-c2cccn3c(-c4cccc(F)c4F)ncc23)ccc1Cl` [Example 85], `O=C(Nc1ccc(F)cc1)c1cccc(-c2cccn3c(-c4cccc(F)c4F)ncc23)n1` [Example 83, 6-(3-(2,3-difluorophenyl)imidazo[1,5-a]pyridin-8-yl)-N-(4-fluorophenyl)picolinamide] is 4-fold higher in EC50: 52 nM for the first, 207 nM for the second. The first is the more potent here.

First: Cc1ccc(-c2cccn3c(-c4cccnc4C)nnc23)cc1C(=O)Nc1ccc(F)cc1 [Example 4, N-(4-fluorophenyl)-2-methyl-5-(3-(2-methylpyridin-3-yl)-[1,2,4]triazolo[4,3-a]pyridin-8-yl)benzamide]
Second: Cc1ccc(-c2cccn3c(-c4cccnc4)nnc23)cc1C(=O)Nc1ccc(F)cc1 [Example 11, N-(4-fluorophenyl)-2-methyl-5-(3-(pyridin-3-yl)-[1,2,4]triazolo[4,3-a]pyridin-8-yl)benzamide]
The EC50 of the first is 3.2-fold higher: 2160 nM for the first, 683 nM for the second.

Compared with `Cc1ncc(-c2cccn3c(-c4cccc(F)c4F)nc(Cl)c23)cc1C(=O)Nc1ccc(F)cc1` [Example 79, 5-(1-chloro-3-(2,3-difluorophenyl)imidazo[1,5-a]pyridin-8-yl)-N-(4-fluorophenyl)-2-methylnicotinamide], `Cc1cc(-c2cnc(C)c(C(=O)Nc3ccc(F)cc3)c2)c2cnc(-c3cccc(F)c3F)n2c1` [Example 78, 5-(3-(2,3-difluorophenyl)-6-methylimidazo[1,5-a]pyridin-8-yl)-N-(4-fluorophenyl)-2-methylnicotinamide] is 7.6-fold higher in EC50: 118 nM for the first, 895 nM for the second.

Compared with `NC(=O)c1ccnc(-c2ncc3c(-c4ccc(C(F)(F)F)c(C(=O)Nc5ccc(F)cc5)c4)cccn23)c1` [Example 6, 2-(8-(3-((4-fluorophenyl)carbamoyl)-4-(trifluoromethyl)phenyl)imidazo[1,5-a]pyridin-3-yl)isonicotinamide], `O=C(Nc1ccc(F)cc1)c1cc(-c2cccn3c(-c4cccnn4)ncc23)ccc1C(F)(F)F` [Example 17, N-(4-fluorophenyl)-5-(3-(pyridazin-3-yl)imidazo[1,5-a]pyridin-8-yl)-2-(trifluoromethyl)benzamide] is 5.6-fold lower in EC50: 1330 nM for the first, 237 nM for the second.

Going from `N#Cc1cccnc1-c1ncc2c(-c3ccc(C(F)(F)F)c(C(=O)Nc4ccc(F)cc4)c3)cccn12` [Example 15, 5-(3-(3-cyanopyridin-2-yl)imidazo[1,5-a]pyridin-8-yl)-N-(4-fluorophenyl)-2-(trifluoromethyl)benzamide] to `Cn1nncc1-c1ncc2c(-c3ccc(C(F)(F)F)c(C(=O)Nc4ccc(F)cc4)c3)cccn12` [Example 8, N-(4-fluorophenyl)-5-(3-(1-methyl-1H-1,2,3-triazol-5-yl)imidazo[1,5-a]pyridin-8-yl)-2-(trifluoromethyl)benzamide], the EC50 rises from 274 nM to 1200 nM (4.4-fold).

Compared with `Cc1ncc(-c2cccn3c(-c4cccc(F)c4F)ncc23)cc1C(=O)Nc1ccc(OC(F)(F)F)cc1` [Example 58, 5-(3-(2,3-difluorophenyl)imidazo[1,5-a]pyridin-8-yl)-2-methyl-N-(4-(trifluoromethoxy)phenyl)nicotinamide], `O=C(Nc1ccc(F)cc1)c1cc(-c2cccn3c(-c4cccc(F)c4F)ncc23)ncc1C(F)(F)F` [Example 28, 2-(3-(2,3-difluorophenyl)imidazo[1,5-a]pyridin-8-yl)-N-(4-fluorophenyl)-5-(trifluoromethyl)isonicotinamide] is 1.9-fold lower in EC50: 110 nM for the first, 57.9 nM for the second.

With `Cc1cnc(-c2cccn3c(-c4cccc(F)c4F)ncc23)nc1C(=O)Nc1ccc(F)cc1` [Example 65, 2-(3-(2,3-difluorophenyl)imidazo[1,5-a]pyridin-8-yl)-N-(4-fluorophenyl)-5-methylpyrimidine-4-carboxamide] the EC50 was 399 nM.
